Measurements: US20190152962A1, “CYCLOPROPYL DERIVATIVES AS ROR-GAMMA MODULATORS” (CADILA HEALTHCARE LIMITED, priority 2016, published 2019)

Columns and labels:
full length human RORγt = target: T1, full length human RORγt (Homo sapiens, UniProt P51449); assay: 5×RORE based luciferase assay; type: cell-based; conditions: COS-7 cells transfected with 5×RORE-Luc and hRORγt, 18-20 h treatment
T1 construct: full length human RORγt together in COS-7 cells; expressed in transfected cells; host or cells: COS-7
T1 sequence (P51449 1-497 isoform P51449-2): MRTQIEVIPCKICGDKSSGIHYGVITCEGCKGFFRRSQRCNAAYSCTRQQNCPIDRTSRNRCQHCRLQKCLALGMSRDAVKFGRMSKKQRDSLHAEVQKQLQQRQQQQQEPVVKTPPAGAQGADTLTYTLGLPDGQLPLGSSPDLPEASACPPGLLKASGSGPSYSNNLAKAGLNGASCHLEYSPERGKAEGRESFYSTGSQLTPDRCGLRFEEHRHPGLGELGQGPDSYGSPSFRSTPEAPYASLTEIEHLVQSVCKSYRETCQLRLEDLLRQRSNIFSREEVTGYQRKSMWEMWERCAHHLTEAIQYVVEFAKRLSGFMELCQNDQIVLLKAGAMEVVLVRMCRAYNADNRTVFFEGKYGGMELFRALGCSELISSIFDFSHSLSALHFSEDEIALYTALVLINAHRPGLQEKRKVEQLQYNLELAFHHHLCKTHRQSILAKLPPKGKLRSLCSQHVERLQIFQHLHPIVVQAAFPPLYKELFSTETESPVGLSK
Procedure: Human RORγt (hRORγt) inhibitors were screened in RORE (RORγt Response Element) based Luciferase assay by transient transfection of 5×RORE (5 tandem repeats of RORγt Response Element) and full length human RORγt together in COS-7 cells. COS-7 cells were maintained as monolayer in complete DMEM (High Glucose) medium in presence of 2 mM Glutamin and 1× Sodium Pyruvate. Day before transfection, 15000 cells were seeded in 96 well cell culture plate in 100 μl antibiotic free medium and incubated at 37° C. in 5% CO2 containing humidified chamber O/N. Prior to transfection, cells were fed with fresh complete growth medium and incubated until the addition of transfection complex. Transfection complex for the required numbers of wells were prepared from pGL2-promoter-5×RORE-Luc plasmid, pcDNA3.1 (+)-hRORγt expression plasmid, pβ-GAL plasmid (transfection control), and Lipofectamine 3000 (Invitrogen). 50 μl of transfection complex were added in 100 μl of complete medium to respective wells, mixed gently and plate was incubated for 5-6 h at 37° C. in 5% CO2 containing humidified chamber. After 5 h of transfection, content of the wells were aspirated and cells were treated with increasing concentration of RORγt inverse agonist in medium devoid of serum with a final DMSO concentration of 0.2% for 18-20 h at 37° C. in 5% CO2 containing humidified chamber. Next day, cells were lysed and the lysates were assayed for luciferase and β-GAL activity using Promega's luciferase assay system and an in-house made β-GAL assay buffer respectively. Luciferase signals were normalized with β-GAL and % activity was determined with respect to that of 10 nM control ligand.
IC50 of selected compounds were then determined by nonlinear regression analysis of % activity, plotted against compound concentration (Table 4).

[1] = system: secreted IL-17 in peripheral blood mononuclear cells (PBMCs); assay: Human IL-17 inhibition assay; type: cell-based; conditions: PBMC, anti-CD3/anti-CD28, 72 h, read-out: IL17 IC50
Procedure: Peripheral blood mononuclear cells (PBMCs) were isolated from healthy volunteers and subjected to T cell polarization assay. Two million PBMCs were placed on anti-CD3 (Biolegend, US) coated 96-well plates and 1 μg/mL of anti-CD28 (Biolegend, US) was added along with RORγt inhibitors or the vehicle control and incubated at 37° C. and 5% CO2 for 72 h. At the end of incubation time, the supernatant was collected and analyzed for secreted IL-17 using sandwich enzyme immunoassay (Mabtech AB, Sweden). The results were analyzed using Graphpad Prism and the half-maximal inhibitory concentrations (IC50) of the test compounds were derived (Table 4).

## CCS(=O)(=O)c1ccc(CC(=O)Nc2cc(Cl)c(C3(c4noc(C(C)C)n4)CC3)c(Cl)c2)cc1 [Example 23, N-(3,5-dichloro-4-(1-(5-isopropyl-1,2,4-oxadiazol-3-yl)cyclopropyl)phenyl)-2-(4-(ethylsulfonyl)phenyl)acetamide]
Full length human RORγt
  IC50: 1.4 nM
[1]
  IC50: 21 nM

## CCS(=O)(=O)c1ccc(CC(=O)Nc2cc(Cl)c(C3(c4noc(C5CC5)n4)CC3)c(Cl)c2)cc1 [Example 25, N-(3,5-dichloro-4-(1-(5-cyclopropyl-1,2,4-oxadiazol-3-yl)cyclopropyl)phenyl)-2-(4-(ethylsulfonyl)phenyl)acetamide]
Full length human RORγt
  IC50: 1.5 nM
[1]
  IC50: 14 nM

## CCS(=O)(=O)c1ccc(CC(=O)Nc2cc(Cl)c(C3(c4noc(C5CC(F)(F)C5)n4)CC3)c(Cl)c2)cc1 [Example 26, N-(3,5-dichloro-4-(1-(5-(3,3-difluorocyclobutyl)-1,2,4-oxadiazol-3-yl)cyclopropyl)phenyl)-2-(4-(ethylsulfonyl)phenyl)acetamide]
Full length human RORγt
  IC50: 2.5 nM
[1]
  IC50: 7.3 nM

## CCS(=O)(=O)c1ccc(CC(=O)Nc2cc(Cl)c(C3(c4noc(C5CCOCC5)n4)CC3)c(Cl)c2)cc1 [Example 27, N-(3,5-dichloro-4-(1-(5-(tetrahydro-2H-pyran-4-yl)-1,2,4-oxadiazol-3-yl)cyclopropyl)phenyl)-2-(4-(ethylsulfonyl)phenyl)acetamide]
Full length human RORγt
  IC50: 13 nM
[1]
  IC50: 10.8 nM

## CCS(=O)(=O)c1ccc(CC(=O)Nc2cc(F)c(C3(c4noc(-c5ccc(F)cc5)n4)CC3)c(F)c2)cc1 [Example 28, N-(3,5-difluoro-4-(1-(5-(4-fluorophenyl)-1,2,4-oxadiazol-3-yl)cyclopropyl)phenyl)-2-(4-(ethylsulfonyl)phenyl)acetamide]
Full length human RORγt
  IC50: 5.8 nM
[1]
  IC50: 41.6 nM

## CCS(=O)(=O)c1ccc(CC(=O)Nc2cc(F)c(C3(c4noc(-c5ccc(F)cc5)n4)CC3)c(Cl)c2)cc1 [Example 29, N-(3-chloro-5-fluoro-4-(1-(5-(4-fluorophenyl)-1,2,4-oxadiazol-3-yl)cyclopropyl)phenyl)-2-(4-(ethylsulfonyl)phenyl)acetamide]
Full length human RORγt
  IC50: 19.4 nM
[1]
  IC50: 19 nM

## CCS(=O)(=O)c1ccc(CC(=O)Nc2cc(F)c(C3(c4noc(-c5ccc(C(F)(F)F)cc5)n4)CC3)c(Cl)c2)cc1 [Example 31, N-(3-chloro-5-fluoro-4-(1-(5-(4-(trifluoromethyl)phenyl)-1,2,4-oxadiazol-3-yl)cyclopropyl)phenyl)-2-(4-(ethylsulfonyl)phenyl)acetamide]
Full length human RORγt
  IC50: 12.6 nM
[1]
  IC50: 50 nM

## CCS(=O)(=O)c1ccc(CC(=O)Nc2cc(F)c(C3(c4noc(-c5ccc(C#N)cc5)n4)CC3)c(Cl)c2)cc1 [Example 32, N-(3-chloro-4-(1-(5-(4-cyanophenyl)-1,2,4-oxadiazol-3-yl)cyclopropyl)-5-fluorophenyl)-2-(4-(ethylsulfonyl)phenyl)acetamide]
Full length human RORγt
  IC50: 5.96 nM
[1]
  IC50: 18 nM

## CCS(=O)(=O)c1ccc(CC(=O)Nc2cc(C)c(C3(c4noc(-c5ccc(F)cc5)n4)CC3)c(C)c2)cc1 [Example 33, 2-(4-(ethylsulfonyl)phenyl)-N-(4-(1-(5-(4-fluorophenyl)-1,2,4-oxadiazol-3-yl)cyclopropyl)-3,5-dimethylphenyl)acetamide]
Full length human RORγt
  IC50: 20.2 nM
[1]
  IC50: 24 nM

## CCS(=O)(=O)c1ccc(CC(=O)Nc2cc(Cl)c(C3(c4nc(-c5ccc(F)cc5)no4)CC3)c(Cl)c2)cc1 [Example 35, N-(3,5-dichloro-4-(1-(3-(4-fluorophenyl)-1,2,4-oxadiazol-5-yl)cyclopropyl)phenyl)-2-(4-(ethylsulfonyl)phenyl)acetamide]
Full length human RORγt
  IC50: 2.3 nM
[1]
  IC50: 12 nM

## CCS(=O)(=O)c1ccc(CC(=O)Nc2cc(Cl)c(C3(c4nc5ccc(F)cc5o4)CC3)c(Cl)c2)cc1 [Example 36, N-(3,5-dichloro-4-(1-(6-fluorobenzo[d]oxazol-2-yl)cyclopropyl)phenyl)-2-(4-(ethylsulfonyl)phenyl)acetamide]
Full length human RORγt
  IC50: 2.44 nM
[1]
  IC50: 19 nM

## CCS(=O)(=O)c1ccc(CC(=O)Nc2cc(Cl)c(C3(c4ncc(-c5ccc(F)cc5)o4)CC3)c(Cl)c2)cc1 [Example 38, N-(3,5-dichloro-4-(1-(5-(4-fluorophenyl)oxazol-2-yl)cyclopropyl)phenyl)-2-(4-(ethylsulfonyl)phenyl)acetamide]
Full length human RORγt
  IC50: 1.5 nM
[1]
  IC50: 23 nM

## CCS(=O)(=O)c1ccc(CC(=O)Nc2cc(Cl)c(C3(c4ncc(-c5ccc(Cl)cc5)o4)CC3)c(Cl)c2)cc1 [Example 39, N-(3,5-dichloro-4-(1-(5-(4-chlorophenyl)oxazol-2-yl)cyclopropyl)phenyl)-2-(4-(ethylsulfonyl)phenyl)acetamide]
Full length human RORγt
  IC50: 22.5 nM
[1]
  IC50: 22 nM

## CCS(=O)(=O)c1ccc(CC(=O)Nc2cc(Cl)c(C3(c4noc(-c5ccc(F)cc5)n4)CC3)c(Cl)c2)nc1 [Example 41, N-(3,5-dichloro-4-(1-(5-(4-fluorophenyl)-1,2,4-oxadiazol-3-yl)cyclopropyl)phenyl)-2-(5-(ethylsulfonyl)pyridin-2-yl)acetamide]
Full length human RORγt
  IC50: 0.76 nM
[1]
  IC50: 15.5 nM

## CCS(=O)(=O)c1ccc(CC(=O)Nc2cc(Cl)c(C3(c4noc(-c5ccc(F)c(F)c5)n4)CC3)c(Cl)c2)nc1 [Example 44, N-(3,5-dichloro-4-(1-(5-(3,4-difluorophenyl)-1,2,4-oxadiazol-3-yl)cyclopropyl)phenyl)-2-(5-(ethylsulfonyl)pyridin-2-yl)acetamide]
Full length human RORγt
  IC50: 10.3 nM
[1]
  IC50: 43 nM

## CCS(=O)(=O)c1ccc(CC(=O)Nc2cc(Cl)c(C3(c4noc(-c5ccc(F)cc5Cl)n4)CC3)c(Cl)c2)nc1 [Example 46, N-(3,5-dichloro-4-(1-(5-(2-chloro-4-fluorophenyl)-1,2,4-oxadiazol-3-yl)cyclopropyl)phenyl)-2-(5-(ethylsulfonyl)pyridin-2-yl)acetamide]
Full length human RORγt
  IC50: 12.9 nM
[1]
  IC50: 17.1 nM

## CCS(=O)(=O)c1ccc(CC(=O)Nc2cc(Cl)c(C3(c4noc(-c5ccc(F)c(Cl)c5)n4)CC3)c(Cl)c2)nc1 [Example 47, N-(3,5-dichloro-4-(1-(5-(3-chloro-4-fluorophenyl)-1,2,4-oxadiazol-3-yl)cyclopropyl)phenyl)-2-(5-(ethylsulfonyl)pyridin-2-yl)acetamide]
Full length human RORγt
  IC50: 10.1 nM
[1]
  IC50: 17.9 nM

## CCS(=O)(=O)c1ccc(CC(=O)Nc2cc(Cl)c(C3(c4noc(-c5ccc(Cl)c(Cl)c5)n4)CC3)c(Cl)c2)nc1 [Example 48, N-(3,5-dichloro-4-(1-(5-(3,4-dichlorophenyl)-1,2,4-oxadiazol-3-yl)cyclopropyl)phenyl)-2-(5-(ethylsulfonyl)pyridin-2-yl)acetamide]
Full length human RORγt
  IC50: 10.5 nM
[1]
  IC50: 38.9 nM

## CCS(=O)(=O)c1ccc(CC(=O)Nc2cc(Cl)c(C3(c4noc(-c5ccc(Cl)cc5Cl)n4)CC3)c(Cl)c2)nc1 [Example 49, N-(3,5-dichloro-4-(1-(5-(2,4-dichlorophenyl)-1,2,4-oxadiazol-3-yl)cyclopropyl)phenyl)-2-(5-(ethylsulfonyl)pyridin-2-yl)acetamide]
Full length human RORγt
  IC50: 4.7 nM
[1]
  IC50: 17 nM

## CCS(=O)(=O)c1ccc(CC(=O)Nc2cc(Cl)c(C3(c4noc(-c5ccc(Cl)cc5)n4)CC3)c(Cl)c2)nc1 [Example 50, N-(3,5-dichloro-4-(1-(5-(4-chlorophenyl)-1,2,4-oxadiazol-3-yl)cyclopropyl)phenyl)-2-(5-(ethylsulfonyl)pyridin-2-yl)acetamide]
Full length human RORγt
  IC50: 14.5 nM
[1]
  IC50: 30 nM

## CCS(=O)(=O)c1ccc(CC(=O)Nc2cc(Cl)c(C3(c4noc(-c5cccc(Cl)c5)n4)CC3)c(Cl)c2)nc1 [Example 51, N-(3,5-dichloro-4-(1-(5-(3-chlorophenyl)-1,2,4-oxadiazol-3-yl)cyclopropyl)phenyl)-2-(5-(ethylsulfonyl)pyridin-2-yl)acetamide]
Full length human RORγt
  IC50: 12.1 nM
[1]
  IC50: 16 nM
